Reference: patent US11919854B2, “P2RX7 modulators in therapy” (Centre national de la recherche scientifique, priority 2018, dated 2024)

Key:
DSS-induced colitis = DSS-induced colitis mouse model; assay type: in vivo, C57BL/6J mice
Protocol: (A) Body weight loss and (B) clinical scores from C57BL/6J treated with 3% DSS during 5 days (J1 to J5), followed by 10 days of normal tap water. The treated group received HEI2328 (ip, 2.3 mg/kg in PBS, 10% DMSO). Data are representative of 2 independent experiments (n=20). Mean±SEM are shown. *, p<0.05; **, p<0.01 (Mann-Whitney test).
The inflammatory index was scored in a longitudinal (A) and a transversal section of the colon (B). Data are representative of 2 independent experiments (n=20). Mean±SEM are shown. *, p<0.05; **, p<0.01 (Mann-Whitney test).
(A-D) Phenotypic analysis of immune cells in spleen of 20 mice treated with HEI2328 or non treated. Data are representative of 2 independent experiments (n=20). Mean±SEM are shown. *, p<0.05; **, p<0.01 (Mann-Whitney test).
All mice received dextran sulfate sodium (3% DSS, TbS consultancy) ad libitum from day 1 to 5 and returned to normal tap water for the following 10 days. Control mice (n=20) were injected daily intraperitoneally with placebo (PBS/10% DMSO), whereas treated mice received 2.3 mg/kg HEI2328 in PBS/10% DMSO. The inventors used the following semi-quantitative clinical score:
Body weight loss was scored as follows: 0, no loss; 1, loss <5%; 2, loss <10%; 3, loss <20%; and 4, loss >20%.
The scores for stool consistency were measured as 0, normal; 1, loose stools; 2, watery diarrhea; or 3, severe watery diarrhea.
Rectal bleeding was scored as 0, no blood; 1, presence of petechia; 2, stools with a trace of blood; or 3, bleeding.
Inflammation score was performed by trained pathologists. Briefly, the severity of inflammation (none, mild, moderate, severe), extent of inflammation (none, mucosa, mucosa, and submucosa, transmural), crypt damage (none, basal to 1/3, basal to 2/3, crypt loss, crypts, and epithelium loss), and percentage of tissue affected by inflammation (0, 25, 50, 75, and 100%) were scored.

[1] = Plasmatic concentration after intraperitoneal administration (LC-MS/MS); assay type: in vivo, mice; conditions: ip
Protocol: B. HEI 3090 is found within plasma until 18 h after intraperitoneal administration. Intraperitoneal administration of HEI-3090 (0.166 mg/mL in 10% DMSO) was performed and serum was taken at 0, 10, 20, 30, […], 120, 240, 360, 1080 and 1440 min. Plasmatic concentration was determined by LC-MS/MS and reached a maximum of 2.5 μM.
Stability was studied in the mouse liver microsome system—and human, not shown—(FIG. 13A) and directly in vivo, for HEI3090 molecule (FIG. 13B). These experiments highlighted that HEI3090 is found at a concentration of maximum 2.5 μM in the plasma of mice injected with HEI3090 (ip, 1.5 mg/kg in 10% DMSO).

B16F10 cells = assay: B16F10 cell death (XTT absorbance); assay type: cell-based, mouse; conditions: 3 h treatment with BzATP and HEI3090
Protocol: A. Large pore opening. Dot plot of representative experiment. Numbers highlighted the percentage of positive cells. […] B. representative curve of XTT absorbance over the time. […] Mean±SEM are shown. ***, p<0.001; ****, p<0.0001 Mann-Whitney test.
Of interest, potentiation of large pore opening correlated with increased-B16F10 cell death, as illustrated in FIG. 9. Cells treated during 1 h with BzATP and HEI3090 incorporated 3-fold more Topro3 than cells treated with BzATP only (FIG. 9A). Longer incubation increased cell death, since it was observed up to 80% of dead cells after 3 h treatment (FIG. 9B).

B16-F10 cells = assay: In vivo assay for immunogenic cell death (ICD), B16-F10; set-up: species or system mice; conditions: B16-F10 exposed to 3 mM ATP and 50 μM HEI3090, contralateral challenge
Protocol: a-b. In vivo assay for the evaluation of HEI3090 as an inducer of immunogenic cell death.
To induce B16-F10 death, cells were exposed to 3 mM ATP and 50 μM HEI3090 and 1.105 dying cells, or PBS as control, were injected sc in the right flank (n=4). 7 days later, 0.5.105 live B16-F10 cells were injected s.c. in the contralateral flank. (a). Curves shown mean of tumor growth in the contralateral site (b).
The inventors performed dedicated experiment to test the hypothesis that HEI3090 may induce immunogenic cell death (ICD).

Structure (SMILES)	clinical score (DSS-induced colitis; 2.3 mg/kg ip daily)	recovery of original weight (DSS-induced colitis; 2.3 mg/kg ip daily)	proportion of inflammatory monocytes in spleen (DSS-induced colitis; CD11b+CD11c−Ly6c+Ly6g−CD3−NK1.1−B220−)	reduction of clinical signs compared with classical P2RX7 antagonists (literature) (DSS-induced colitis; comparison with published antagonist data)	inflammatory (histologic) index of colon (DSS-induced colitis; day 15, colon sections)	body weight loss (DSS-induced colitis; days 6 to 9, 2.3 mg/kg ip daily, 3% DSS days 1-5)	myeloid infiltrate in spleen (DSS-induced colitis; treated mice (28 in non treated))	lymphoid population in spleen (DSS-induced colitis; treated mice (67 in non treated))	Treg and Tγδ lymphocytes within lymphoid populations of spleen (DSS-induced colitis; treated vs non treated)	proportion of conventional DC (cDC) and plasmacytoid DC (pDC) in spleen (DSS-induced colitis; treated vs non treated)	time found within plasma after intraperitoneal administration ([1]; 0.166 mg/mL in 10% DMSO)	maximum plasmatic concentration ([1]; mice, 1.5 mg/kg in 10% DMSO (0.166 mg/mL in 10% DMSO))	dead cells (B16F10 cells)	induction of immunogenic cell death (ICD) (B16-F10 cells)
O=C(NCc1ccc(Cl)cc1Cl)[C@@H]1CCC(=O)N1C(=O)Nc1ccc(Cl)c(Cl)c1 [HEI2328, (S)—N^2-(2,4-Dichlorobenzyl)-N^1-(3,4-dichlorophenyl)-5-oxopyrrolidine-1,2-dicarboxamide]	more healthy and recovered quicker than control mice	recovered their original weight after 15 days	statistically decreased	more efficient than classical P2RX7 antagonists	very low inflammatory index	lost statistically less weight than the control group	17%	76%	increased	did not modify				
O=C(NCc1ccc(Cl)cc1Cl)[C@@H]1CCC(=O)N1C(=O)Nc1ccc(Cl)nc1 [HEI3090, (S)—N^1-(6-Chloropyridin-3-yl)-N^2-(2,4-dichlorobenzyl)-5-oxopyrrolidine-1,2-dicarboxamide]											≤ 18 h	2.5 µM	up to 80%	does not promote ICD
